Values quoted from earlier work in patent US4746505A, “Technetium radiodiagnostic fatty acids derived from bisamide bisthiol ligands” (President and Fellows of Harvard College, priority 1985, dated 1988).

Columns and labels:
[1] = mice
[2] = at carrier-added (CA) and no-carrier-added (NCA) concentrations

^99m Tc-oxo[N,N'-ethylene-bis(2-mercapto)-[2'-(11-carboxyundecyl)]thio-acetamido]-technetate (+5) [^99m TcO(Undec)ema]
kidney activity ([1]; at 5 min post-injection): relatively high kidney activity | blood levels ([1]; over the first 30 min): 6-8 %/g

oxo[N,N'-ethylenebis(2-mercapto-acetamido)]technetate (+5) [[TcO(ema)]^-]
stability in vivo (at carrier-added (CA) and no-carrier-added (NCA) concentrations): stable | renal excretion (in vivo): rapid renal excretion | stability in vitro [2]: stable
